Values after ≈ are worked out from the molar mass of the structure shown.
What was measured:
[1] = system: Escherichia coli (E. coli) BAS849; test: Antibacterial activity, microbroth dilution MIC (Table 1); type: cell-based; settings: microbroth dilution, super sensitive Gram-negative E. coli BAS849, read-out: MIC, BAS849
Description: (§1) The antibacterial activity from a microbroth dilution method may be presented as the minimum inhibitory concentration (MIC in μg/mL). The MIC value is the lowest concentration of drug which prevents macroscopically visible growth under test conditions.
(§2) Antibacterial activity of test compounds against the super sensitive Gram-negative Escherichia coli (E. coli) BAS849 bacterium, the control Gram-negative E. coli 25922 strain and the Gram-positive Staphylococcus aureus (S. aureus) 29213 bacterium are shown in Table 1.

[2] = system: Staphylococcus aureus (S. aureus) 29213; test: as above; type: cell-based; settings: microbroth dilution, Gram-positive S. aureus 29213, read-out: MIC, 29213
Description: as §1, §2

[3] = system: E. coli 25922; test: as above; type: cell-based, Escherichia coli; settings: Escherichia coli; microbroth dilution; control Gram-negative E. coli 25922 strain; read-out: MIC, 25922
Description: as §1, §2

[4] = system: E. coli LZ3111; test: Antibacterial activity, MIC, quinolone resistant strain (Table 2); type: cell-based; settings: Escherichia coli, LZ3111, read-out: MIC LZ3111
Description: as §1
Mutations in these regions are known to confer a high level resistance to the quinolone class of antibiotics.

SMILES: CCc1c(-c2ccc3c(c2)c(C)c(C)n3C)[nH]c(=O)c(C(=O)O)c1O [Cpd 30, 5-ethyl-4-hydroxy-2-oxo-6-(1,2,3-trimethyl-1H-indol-5-yl)-1,2-dihydropyridine-3-carboxylic acid]
- MIC [1]: 1 to 3.5 µg/mL (≈ 2.94 to 10.3 µM)
- MIC [2]: 1 to 3.5 µg/mL (≈ 2.94 to 10.3 µM)
- MIC [3]: 12.5 to 150 µg/mL (≈ 36.7 to 441 µM)
- MIC [4]: 12.5 to 150 µg/mL (≈ 36.7 to 441 µM)

SMILES: CC(C)c1c(-c2ccc3c(ccn3C)c2)[nH]c(=O)c(C(=O)O)c1O [Cpd 34, 4-hydroxy-5-isopropyl-6-(1-methyl-1H-indol-5-yl)-2-oxo-1,2-dihydropyridine-3-carboxylic acid]
- MIC [1]: < 1 µg/mL
- MIC [2]: 1 to 3.5 µg/mL (≈ 3.06 to 10.7 µM)
- MIC [3]: 3.5 to 12.5 µg/mL (≈ 10.7 to 38.3 µM)

SMILES: CCc1cc(C(=O)O)c(=O)[nH]c1-c1cc2cc(C(=O)O)n(C)c2cn1 [Cpd 54, 5-(5-carboxy-3-ethyl-6-oxo-1,6-dihydropyridin-2-yl)-1-methyl-1H-pyrrolo[2,3-c]pyridine-2-carboxylic acid]
- MIC [1]: 1 to 3.5 µg/mL (≈ 2.93 to 10.3 µM)
- MIC [2]: 12.5 to 150 µg/mL (≈ 36.6 to 439 µM)
- MIC [3]: 12.5 to 150 µg/mL (≈ 36.6 to 439 µM)
- MIC [4]: 12.5 to 150 µg/mL (≈ 36.6 to 439 µM)

SMILES: CCc1cc(C(=O)O)c(=O)[nH]c1-c1cnc2[nH]ccc2c1 [Cpd 55, 5-ethyl-2-oxo-6-(1H-pyrrolo[2,3-b]pyridin-5-yl)-1,2-dihydropyridine-3-carboxylic acid]
- MIC [1]: 12.5 to 150 µg/mL (≈ 44.1 to 529 µM)
- MIC [2]: 12.5 to 150 µg/mL (≈ 44.1 to 529 µM)
- MIC [3]: 12.5 to 150 µg/mL (≈ 44.1 to 529 µM)
- MIC [4]: 12.5 to 150 µg/mL (≈ 44.1 to 529 µM)

SMILES: CCc1cc(C(=O)O)c(=O)[nH]c1-c1ccc2c(c1)N(C)CCN2C [Cpd 56, 6-(1,4-dimethyl-1,2,3,4-tetrahydroquinoxalin-6-yl)-5-ethyl-2-oxo-1,2-dihydropyridine-3-carboxylic acid]
- MIC [1]: 3.5 to 12.5 µg/mL (≈ 10.7 to 38.2 µM)
- MIC [2]: 12.5 to 150 µg/mL (≈ 38.2 to 458 µM)
- MIC [3]: 12.5 to 150 µg/mL (≈ 38.2 to 458 µM)
- MIC [4]: 12.5 to 150 µg/mL (≈ 38.2 to 458 µM)

SMILES: CCc1cc(C(=O)O)c(=O)[nH]c1-c1ccc2nccnc2c1 [Cpd 57, 5-ethyl-2-oxo-6-(quinoxalin-6-yl)-1,2-dihydropyridine-3-carboxylic acid]
- MIC [1]: 12.5 to 150 µg/mL (≈ 42.3 to 508 µM)
- MIC [2]: 12.5 to 150 µg/mL (≈ 42.3 to 508 µM)
- MIC [3]: 12.5 to 150 µg/mL (≈ 42.3 to 508 µM)
- MIC [4]: 12.5 to 150 µg/mL (≈ 42.3 to 508 µM)

SMILES: CCc1cc(C(=O)O)c(=O)[nH]c1-c1cnc2c(c1)OCCN2C [Cpd 58, 5-ethyl-6-(4-methyl-3,4-dihydro-2H-pyrido[3,2-b][1,4]oxazin-7-yl)-2-oxo-1,2-dihydropyridine-3-carboxylic acid]
- MIC [1]: 3.5 to 12.5 µg/mL (≈ 11.1 to 39.6 µM)
- MIC [2]: 12.5 to 150 µg/mL (≈ 39.6 to 476 µM)
- MIC [3]: 12.5 to 150 µg/mL (≈ 39.6 to 476 µM)
- MIC [4]: 12.5 to 150 µg/mL (≈ 39.6 to 476 µM)

SMILES: CCc1cc(C(=O)O)c(=O)[nH]c1-c1cnc2c(c1)c(C#N)cn2C [Cpd 59, 6-(3-cyano-1-methyl-1H-pyrrolo[2,3-b]pyridin-5-yl)-5-ethyl-2-oxo-1,2-dihydropyridine-3-carboxylic acid]
- MIC [1]: 12.5 to 150 µg/mL (≈ 38.8 to 465 µM)
- MIC [2]: 12.5 to 150 µg/mL (≈ 38.8 to 465 µM)
- MIC [3]: 12.5 to 150 µg/mL (≈ 38.8 to 465 µM)
- MIC [4]: 12.5 to 150 µg/mL (≈ 38.8 to 465 µM)

SMILES: CCc1cc(C(=O)O)c(=O)[nH]c1-c1ccc2nc(CN(C)C)cn2c1.Cl.Cl [Cpd 60, 6-(2-((dimethylamino)methyl)imidazo[1,2-a]pyridin-6-yl)-5-ethyl-2-oxo-1,2-dihydropyridine-3-carboxylic acid dihydrochloride]
- MIC [1]: 12.5 to 150 µg/mL
- MIC [2]: 12.5 to 150 µg/mL
- MIC [3]: 12.5 to 150 µg/mL
- MIC [4]: 12.5 to 150 µg/mL

SMILES: CCc1cc(C(=O)O)c(=O)[nH]c1-c1ccc2nc(CN3CCCC3)cn2c1.Cl.Cl [Cpd 61, 5-ethyl-2-oxo-6-(2-(pyrrolidin-1-ylmethyl)imidazo[1,2-a]pyridin-6-yl)-1,2-dihydropyridine-3-carboxylic acid dihydrochloride]
- MIC [1]: 12.5 to 150 µg/mL
- MIC [2]: 12.5 to 150 µg/mL
- MIC [3]: 12.5 to 150 µg/mL
- MIC [4]: 12.5 to 150 µg/mL

SMILES: CCc1cc(C(=O)O)c(=O)[nH]c1-c1ccc2nc(CN3CCCCC3)cn2c1.Cl.Cl [Cpd 62, 5-ethyl-2-oxo-6-(2-(piperidin-1-ylmethyl)imidazo[1,2-a]pyridin-6-yl)-1,2-dihydropyridine-3-carboxylic acid dihydrochloride]
- MIC [1]: 12.5 to 150 µg/mL
- MIC [2]: 12.5 to 150 µg/mL
- MIC [3]: 12.5 to 150 µg/mL
- MIC [4]: 12.5 to 150 µg/mL

SMILES: CCc1cc(C(=O)O)c(=O)[nH]c1-c1ccc2nc(CN(CC)CC)cn2c1.Cl.Cl [Cpd 63, 6-(2-((diethylamino)methyl)imidazo[1,2-a]pyridin-6-yl)-5-ethyl-2-oxo-1,2-dihydropyridine-3-carboxylic acid dihydrochloride]
- MIC [1]: 12.5 to 150 µg/mL
- MIC [2]: 12.5 to 150 µg/mL
- MIC [3]: 12.5 to 150 µg/mL
- MIC [4]: 12.5 to 150 µg/mL

SMILES: CCc1cc(C(=O)O)c(=O)[nH]c1-c1cc2cc(CN3CCCC3)n(C)c2s1.Cl [Cpd 64, 5-ethyl-6-(6-methyl-5-(pyrrolidin-1-ylmethyl)-6H-thieno[2,3-b]pyrrol-2-yl)-2-oxo-1,2-dihydropyridine-3-carboxylic acid hydrochloride]
- MIC [1]: < 1 µg/mL
- MIC [2]: 12.5 to 150 µg/mL
- MIC [3]: 12.5 to 150 µg/mL
- MIC [4]: 12.5 to 150 µg/mL

SMILES: CCc1cc(C(=O)O)c(=O)[nH]c1-c1cc2cc(CN(C)C)n(C)c2s1.Cl [Cpd 65, 6-(5-((dimethylamino)methyl)-6-methyl-6H-thieno[2,3-b]pyrrol-2-yl)-5-ethyl-2-oxo-1,2-dihydropyridine-3-carboxylic acid hydrochloride]
- MIC [1]: < 1 µg/mL
- MIC [2]: 12.5 to 150 µg/mL
- MIC [3]: 3.5 to 12.5 µg/mL
- MIC [4]: 12.5 to 150 µg/mL

SMILES: CCc1cc(C(=O)O)c(=O)[nH]c1-c1ccc2c(c1)cc1n2CCNC1 [Cpd 66, 5-ethyl-2-oxo-6-(1,2,3,4-tetrahydropyrazino[1,2-a]indol-8-yl)-1,2-dihydropyridine-3-carboxylic acid]
- MIC [1]: < 1 µg/mL
- MIC [2]: 12.5 to 150 µg/mL (≈ 37.1 to 445 µM)
- MIC [3]: < 1 µg/mL
- MIC [4]: 12.5 to 150 µg/mL (≈ 37.1 to 445 µM)

— patent US9409905B2, “Antibacterial compounds and methods for use” (PTC THERAPEUTICS, INC., priority 2011, dated 2016)
